# Experimental data: patent publication US8778631B2, “Mono charging system for selectively introducing non-native amino acids into proteins using an in vitro protein synthesis system” (priority 2009, dated 2014)
# Biological target: T1, PheRS (Escherichia coli, UniProt P08312)
# T1 construct: endogenous in cells; host or cells: cell-free extract (lysate) of E. coli strain KGK10
# Test: Inhibition of the rate of cell-free synthesis of turboGFP by Phe-SA
# Assay type: biochemical, E. coli
# Settings: cell-free synthesis of turboGFPY50TAG with pAF-tRNACUA^Phe
# Protocol: A modified “run-off procedure” was used to prepare the cell-free extract. Fermentation volume to generate sufficient cell-free extract was typically 2.5× the desired cell-free reaction volume. To inactivate the reducing activity of the cell extract, iodoacetamide (IAM) at various concentrations was added as previously described (Yang, Kanter et al. (2004) Biotechnol Prog, 20, 1689-96). Gene expression was under the control of the T7 promoter. In order to facilitate translation initiation, genes were synthesized (DNA 2.0, Menlo Park, Calif.) with synonymous codons at the 5′ end of the gene with ATG start codon (N-terminal methionine residue) optimized for mRNA instability as measured by mRNA ΔGfold in the −6 to +37 positions (Kudla, Murray et al. (2009) Science, 324, 255-258) and rare codons were replaced.
# Cell-free reactions were run at 30° C. containing 8 mM magnesium glutamate, 10 mM ammonium glutamate, 130 mM potassium glutamate, 35 mM sodium pyruvate, 1.2 mM AMP, 0.86 mM each of GMP, UMP, & CMP, 2 mM amino acids (1 mM for tyrosine), 4 mM sodium oxalate, 1 mM putrescine, 1.5 mM spermidine, 15 mM potassium phosphate, 100 nM T7 RNA polymerase, 2-50 nM DNA template(s), 1-10 μM E. coli DsbC, and 24-30% (v/v) IAM-treated cell-free extract.
# T1 sequence (P07395 whole entry): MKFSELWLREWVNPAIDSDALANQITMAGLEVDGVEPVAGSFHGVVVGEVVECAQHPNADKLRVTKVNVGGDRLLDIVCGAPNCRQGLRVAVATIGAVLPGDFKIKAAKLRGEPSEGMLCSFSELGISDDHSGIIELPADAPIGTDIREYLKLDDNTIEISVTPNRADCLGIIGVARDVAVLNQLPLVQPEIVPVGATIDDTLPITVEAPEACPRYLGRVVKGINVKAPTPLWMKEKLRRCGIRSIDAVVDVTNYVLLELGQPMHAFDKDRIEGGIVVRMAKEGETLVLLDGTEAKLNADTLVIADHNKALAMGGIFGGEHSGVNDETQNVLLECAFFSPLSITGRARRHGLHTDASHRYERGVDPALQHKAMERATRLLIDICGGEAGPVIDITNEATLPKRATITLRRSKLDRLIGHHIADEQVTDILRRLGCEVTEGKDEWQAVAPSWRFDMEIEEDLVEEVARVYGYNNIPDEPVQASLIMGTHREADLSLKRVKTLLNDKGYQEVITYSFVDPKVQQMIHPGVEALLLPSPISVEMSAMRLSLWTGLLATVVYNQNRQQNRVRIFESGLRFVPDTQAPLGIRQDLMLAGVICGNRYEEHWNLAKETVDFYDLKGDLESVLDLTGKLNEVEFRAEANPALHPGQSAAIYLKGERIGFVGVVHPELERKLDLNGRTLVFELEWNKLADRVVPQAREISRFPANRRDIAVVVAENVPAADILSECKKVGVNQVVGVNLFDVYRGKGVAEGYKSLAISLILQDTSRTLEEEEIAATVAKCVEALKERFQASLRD
# T1 sequence (P08312 whole entry): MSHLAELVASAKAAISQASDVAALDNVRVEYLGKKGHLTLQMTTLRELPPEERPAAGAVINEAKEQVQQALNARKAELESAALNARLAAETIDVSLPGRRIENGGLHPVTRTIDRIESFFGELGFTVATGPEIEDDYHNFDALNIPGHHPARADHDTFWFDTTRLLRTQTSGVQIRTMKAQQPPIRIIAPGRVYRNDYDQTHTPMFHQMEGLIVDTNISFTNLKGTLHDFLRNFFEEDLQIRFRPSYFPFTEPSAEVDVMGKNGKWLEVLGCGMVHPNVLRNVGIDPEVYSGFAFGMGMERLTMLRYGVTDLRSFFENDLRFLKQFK
smiles,measurement,value
"Nc1ncnc2c1ncn2[C@@H]1O[C@H](COS(=O)(=O)NC(=O)[C@@H](N)Cc2ccccc2)[C@@H](O)[C@H]1O [Phe-SA, 5′-O—[N-(Phenylalanyl)sulfamoyl]adenosine]",time after which the inhibitor begins to lose its effectiveness,7 to 8 h
